Results reported in ChEMBL document CHEMBL3616377, “2-(3'-Indolyl)-N-arylthiazole-4-carboxamides: Synthesis and evaluation of antibacterial and anticancer activities” (Bioorg Med Chem Lett, 2015).
≈ marks a conversion by molar mass, not a printed value. Each block holds one compound with its values, some of them ahead of it. Calls of active or inactive are those of the source. The rule behind the calls is not given here.

Tests used:
[1] = test system: HeLa; assay: Cytotoxicity against human HeLa cells after 48 hrs by MTT assay in absence of 10% FBS; assay type: functional, cell-based
[2] = test system: PC-3; assay: Cytotoxicity against human PC3 cells after 48 hrs by MTT assay in absence of 10% FBS; assay type: functional, cell-based; details: PC-3, 48 h
[3] = test system: MDA-MB-231; assay: Cytotoxicity against human MDA-MB-231 cells after 48 hrs by MTT assay in absence of 10% FBS; assay type: functional, cell-based; details: MDA-MB-231, 48 h
[4] = test system: LNCaP; assay: Cytotoxicity against human LNCAP cells after 48 hrs by MTT assay in absence of 10% FBS; assay type: functional, cell-based
[5] = test system: Staphylococcus aureus; assay: Antibacterial activity against Staphylococcus aureus MTCC 96 after 18 to 24 hrs by broth microdilution method; assay type: functional
[6] = test system: Staphylococcus aureus; assay: Antibacterial activity against Staphylococcus aureus MTCC 96 after 18 to 24 hrs by agar well diffusion method; assay type: functional
[7] = test system: Bacillus subtilis; assay: Antibacterial activity against Bacillus subtilis MTCC 121 after 18 to 24 hrs by agar well diffusion method; assay type: functional
[8] = test system: Bacillus subtilis; assay: Antibacterial activity against Bacillus subtilis MTCC 121 after 18 to 24 hrs by broth microdilution method; assay type: functional
[9] = test system: Escherichia coli; assay: Antibacterial activity against Escherichia coli MTCC 1652 after 18 to 24 hrs by agar well diffusion method; assay type: functional
[10] = test system: Escherichia coli; assay: Antibacterial activity against Escherichia coli MTCC 1652 after 18 to 24 hrs by broth microdilution method; assay type: functional
[11] = test system: Pseudomonas putida; assay: Antibacterial activity against Pseudomonas putida MTCC 102 after 18 to 24 hrs by agar well diffusion method; assay type: functional
[12] = test system: Pseudomonas putida; assay: Antibacterial activity against Pseudomonas putida MTCC 102 after 18 to 24 hrs by broth microdilution method; assay type: functional
[13] = test system: Escherichia coli; assay: Bactericidal activity against Escherichia coli MTCC 1652 assessed as reduction of number of bacterial cells at 4 times MIC after 1 to 6 hrs; assay type: functional, organism-based
[14] = test system: Pseudomonas putida; assay: Bactericidal activity against Pseudomonas putida MTCC 102 assessed as reduction of number of bacterial cells at 4 times MIC after 1 to 6 hrs; assay type: functional, organism-based
[15] = test system: Escherichia coli; assay: Bactericidal activity against Escherichia coli MTCC 1652 assessed as reduction of number of bacterial cells at 4 times MIC after 2 to 3 hrs; assay type: functional, organism-based
[16] = test system: Pseudomonas putida; assay: Bactericidal activity against Pseudomonas putida MTCC 102 assessed as reduction of number of bacterial cells at 4 times MIC after 2 to 3 hrs; assay type: functional, organism-based
[17] = test system: HEK-293T; assay: Cytotoxicity against human HEK293T cells after 48 hrs by MTT assay in presence of 10% FBS; assay type: cell-based
[18] = Cytotoxicity against human castration-resistant C4-2 cells after 48 hrs by MTT assay in presence of 10% FBS; assay type: functional, cell-based; details: LNCaP C4-2, 48 h
[19] = test system: HeLa; assay: Cytotoxicity against human HeLa cells after 48 hrs by MTT assay in presence of 10% FBS; assay type: functional, cell-based
[20] = test system: PC-3; assay: Cytotoxicity against human PC3 cells after 48 hrs by MTT assay in presence of 10% FBS; assay type: functional, cell-based; details: PC-3, 48 h
[21] = test system: MDA-MB-231; assay: Cytotoxicity against human MDA-MB-231 cells after 48 hrs by MTT assay in presence of 10% FBS; assay type: functional, cell-based; details: MDA-MB-231, 48 h
[22] = test system: LNCaP; assay: Cytotoxicity against human LNCAP cells after 48 hrs by MTT assay in presence of 10% FBS; assay type: functional, cell-based
[23] = test system: HeLa; assay: Induction of apoptosis in human HeLa cells assessed as formation of apoptotic nuclei formation at 10 uM after 24 hrs using propidium iodide staining by fluorescence microscopy analysis; assay type: functional, cell-based
[24] = test system: HEK-293T; assay: Cytotoxicity against human HEK293T cells after 48 hrs by MTT assay in absence of 10% FBS; assay type: cell-based
[25] = Cytotoxicity against human castration-resistant C4-2 cells after 48 hrs by MTT assay in absence of 10% FBS; assay type: functional, cell-based; details: LNCaP C4-2, 48 h
[26] = test system: Staphylococcus aureus; assay: Antibacterial activity against methicillin-resistant Staphylococcus aureus; assay type: functional
[27] = test system: SK-N-MC; assay: Cytotoxicity against human SK-N-MC cells by MTT assay; assay type: functional, cell-based
[28] = test system: HepG2; assay: Cytotoxicity against human HepG2 cells by MTT assay; assay type: functional, cell-based
[29] = test system: MCF7; assay: Cytotoxicity against human MCF7 cells by MTT assay; assay type: functional, cell-based

MIC [5]: 100 µg/mL (≈ 228 µM) | MIC [8]: 50 µg/mL (≈ 114 µM) | MIC [10]: 12.5 µg/mL (≈ 28.4 µM) | MIC [12]: 12.5 µg/mL (≈ 28.4 µM)
SMILES: COc1ccc2[nH]cc(-c3nc(C(=O)Nc4cc(OC)c(OC)c(OC)c4)cs3)c2c1
IC50 [1]: 29.6 µM | IC50 [2]: 94.3 µM | IC50 [3]: > 100 µM | IC50 [4]: > 100 µM | inhibition zone (IZ) [6]: 13 mm | inhibition zone (IZ) [7]: 14 mm | inhibition zone (IZ) [9]: 18 mm | inhibition zone (IZ) [11]: 18 mm | Activity [13]: Active | Activity [14]: Active | Activity [15]: Active | Activity [16]: Active | IC50 [17]: 8.74 µM | IC50 [18]: > 100 µM | IC50 [19]: 9.98 µM | IC50 [20]: > 100 µM | IC50 [21]: > 100 µM | IC50 [22]: 84.8 µM | Activity [23]: Active | IC50 [24]: 8.6 µM | IC50 [25]: > 100 µM

SMILES: Clc1ccc2ccc(-c3c[nH]c4ccc(Br)cc34)nc2c1
MIC [26]: < 1 µg/mL

SMILES: Cc1ccc(-c2nc(C(=O)Nc3ccccc3)cs2)cc1
IC50 [27]: 10 µM | IC50 [28]: 10 µM | IC50 [29]: 10 µM
